According to ChEMBL document CHEMBL3992552, “Mechanisms of action and structure-activity relationships of cytotoxic flavokawain derivatives” (Bioorg Med Chem, 2017):
Calls of active or inactive are those of the source. The rule behind the calls is not given here.

Tested on: PC-3
Experiment: Cell cycle arrest in human PC3 cells assessed as accumulation at M phase by Hoechst staining based fluorescence assay
Assay type: functional
Conditions: not given

Row | SMILES | Activity
1 | COc1cccc(/C=C/C(=O)c2c(O)cc(OC)cc2OC)c1 | Active

Tested on: HCT-116
Experiment: Cytotoxicity against human HCT116 cells assessed as cell survival at 50 uM after 48 hrs by Hoechst 33342 staining based assay relative to control
Assay type: functional
Conditions: HCT-116, 48 h, read-out: Survival

Row | SMILES | viability at 50 µM
2 | COc1cccc(/C=C/C(=O)c2c(O)cc(OC)cc2OC)c1 | 0%

Tested on: MCF7
Experiment: Induction of apoptosis in human MCF7 cells harboring wild-type p53 assessed as increase in late apoptosis at 2 times IC50 after 24 hrs by YoPro/propidium iodide/Hoechst staining based assay
Assay type: functional, cell-based
Conditions: not given

Row | SMILES | Activity
3 | COc1cccc(/C=C/C(=O)c2c(O)cc(OC)cc2OC)c1 | Active

Tested on: Caco-2
Experiment: Cell cycle arrest in human Caco2 cells assessed as accumulation at S phase at 25 uM measured after 48 hrs by Hoechst/BrdU staining based fluorescence assay (reference value: […])
Assay type: functional
Conditions: not given

Row | SMILES | Activity
4 | COc1cccc(/C=C/C(=O)c2c(O)cc(OC)cc2OC)c1 | 34%

Tested on: HCT-116
Experiment: Cell cycle arrest in human HCT116 cells harboring wild-type p53 assessed as accumulation at S phase at 25 uM measured after 48 hrs by Hoechst/BrdU staining based fluorescence assay (reference value: 68.4%)
Assay type: functional
Conditions: not given

Row | SMILES | Activity
5 | COc1cccc(/C=C/C(=O)c2c(O)cc(OC)cc2OC)c1 | 37%

Tested on: PC-3
Experiment: Induction of apoptosis in human PC3 cells harboring p53 mutant assessed as upregulation of cyclinB1 after 48 hrs by Hoechst staining based assay
Assay type: functional, cell-based
Conditions: not given

Row | SMILES | Activity
6 | COc1cccc(/C=C/C(=O)c2c(O)cc(OC)cc2OC)c1 | Active

Tested on: NCI-H727
Experiment: Cell cycle arrest in human NCI-H727 cells harboring p53 mutant assessed as accumulation at S phase at 10 uM measured after 48 hrs by Hoechst/BrdU staining based fluorescence assay (reference value: 40.3%)
Assay type: functional
Conditions: not given

Row | SMILES | Activity
7 | COc1cccc(/C=C/C(=O)c2c(O)cc(OC)cc2OC)c1 | 35%

Tested on: HaCaT
Experiment: Cytotoxicity against human HaCaT cells assessed as cell survival at 50 uM after 48 hrs by Hoechst 33342 staining based assay relative to control
Assay type: functional
Conditions: read-out: Survival

Row | SMILES | viability at 50 µM
8 | COc1cccc(/C=C/C(=O)c2c(O)cc(OC)cc2OC)c1 | 7%

Tested on: PC-3
Experiment: Induction of apoptosis in human PC3 cells harboring p53 mutant assessed as increase in late apoptosis at 2 times IC50 after 48 hrs by YoPro/propidium iodide/Hoechst staining based assay
Assay type: functional, cell-based
Conditions: not given

Row | SMILES | Activity
9 | COc1cccc(/C=C/C(=O)c2c(O)cc(OC)cc2OC)c1 | Active

Tested on: not listed separately
Experiment: Selectivity index, ratio of IC50 for human fibroblasts to IC50 for human Caco2 cells
Conditions: not given

Row | SMILES | Ratio IC50
10 | COc1cccc(/C=C/C(=O)c2c(O)cc(OC)cc2OC)c1 | 2.4

Tested on: Huh-7
Experiment: Cell cycle arrest in human HuH7 cells assessed as mitotic index at 10 uM measured after 48 hrs by Hoechst staining based fluorescence assay (reference value: 2.2)
Assay type: functional
Conditions: not given

Row | SMILES | Activity_index
11 | COc1cccc(/C=C/C(=O)c2c(O)cc(OC)cc2OC)c1 | 1.6

Tested on: NCI-H727
Experiment: Cell cycle arrest in human NCI-H727 cells harboring p53 mutant assessed as accumulation at S phase at 25 uM measured after 48 hrs by Hoechst/BrdU staining based fluorescence assay (reference value: 40.3%)
Assay type: functional
Conditions: not given

Row | SMILES | Activity
12 | COc1cccc(/C=C/C(=O)c2c(O)cc(OC)cc2OC)c1 | 1.4%

Tested on: MDA-MB-231
Experiment: Cytotoxicity against human MDA-MB-231 cells assessed as cell viability after 48 hrs by Hoechst 33342 staining based assay
Assay type: functional
Conditions: MDA-MB-231, 48 h

Row | SMILES | IC50
13 | COc1cccc(/C=C/C(=O)c2c(O)cc(OC)cc2OC)c1 | 13.2 µM

Tested on: MDA-MB-231
Experiment: Cytotoxicity against human MDA-MB-231 cells assessed as cell survival at 50 uM after 48 hrs by Hoechst 33342 staining based assay relative to control
Assay type: functional
Conditions: MDA-MB-231, 48 h, read-out: Survival

Row | SMILES | viability at 50 µM
14 | COc1cccc(/C=C/C(=O)c2c(O)cc(OC)cc2OC)c1 | 11%

Tested on: not listed separately
Experiment: Selectivity index, ratio of IC50 for human fibroblasts to IC50 for human MDA-MB-231 cells
Conditions: not given

Row | SMILES | Ratio IC50
15 | COc1cccc(/C=C/C(=O)c2c(O)cc(OC)cc2OC)c1 | 2

Tested on: not listed separately
Experiment: Selectivity index, ratio of IC50 for human fibroblasts to IC50 for human HCT116 cells
Conditions: not given

Row | SMILES | Ratio IC50
16 | COc1cccc(/C=C/C(=O)c2c(O)cc(OC)cc2OC)c1 | 3.5

Tested on: MDA-MB-231
Experiment: Induction of apoptosis in human MDA-MB-231 cells harboring p53 mutant assessed as increase in late apoptosis at 2 times IC50 after 24 hrs by YoPro/propidium iodide/Hoechst staining based assay
Assay type: functional, cell-based
Conditions: not given

Row | SMILES | Activity
17 | COc1cccc(/C=C/C(=O)c2c(O)cc(OC)cc2OC)c1 | Active

Tested on: Huh-7
Experiment: Cell cycle arrest in human HuH7 cells assessed as mitotic index at 25 uM measured after 48 hrs by Hoechst staining based fluorescence assay (reference value: 2.2)
Assay type: functional
Conditions: not given

Row | SMILES | Activity_index
18 | COc1cccc(/C=C/C(=O)c2c(O)cc(OC)cc2OC)c1 | 0.1

Tested on: MDA-MB-231
Experiment: Cell cycle arrest in human MDA-MB-231 cells harboring p53 mutant assessed as mitotic index at 10 uM measured after 48 hrs by Hoechst staining based fluorescence assay (reference value: 2.1)
Assay type: functional
Conditions: not given

Row | SMILES | Activity_index
19 | COc1cccc(/C=C/C(=O)c2c(O)cc(OC)cc2OC)c1 | 4.2

Tested on: Caco-2
Experiment: Cytotoxicity against human Caco2 cells assessed as cell survival at 50 uM after 48 hrs by Hoechst 33342 staining based assay relative to control
Assay type: functional
Conditions: Caco-2, 48 h, read-out: Survival

Row | SMILES | viability at 50 µM
20 | COc1cccc(/C=C/C(=O)c2c(O)cc(OC)cc2OC)c1 | 1%

Tested on: not listed separately
Experiment: Selectivity index, ratio of IC50 for human fibroblasts to IC50 for human MCF7 cells
Conditions: not given

Row | SMILES | Ratio IC50
21 | COc1cccc(/C=C/C(=O)c2c(O)cc(OC)cc2OC)c1 | 2.6

Tested on: HaCaT
Experiment: Cell cycle arrest in human HaCaT cells harboring […] p53 assessed as mitotic index at 10 uM measured after 48 hrs by Hoechst staining based fluorescence assay (reference value: 2.6)
Assay type: functional
Conditions: not given

Row | SMILES | Activity_index
22 | COc1cccc(/C=C/C(=O)c2c(O)cc(OC)cc2OC)c1 | 2.6

Tested on: RL
Experiment: Cytotoxicity against human RL assessed as cell viability after 48 hrs by Hoechst 33342 staining based assay
Assay type: functional
Conditions: not given

Row | SMILES | IC50
23 | COc1cccc(/C=C/C(=O)c2c(O)cc(OC)cc2OC)c1 | 9 µM

Tested on: HCT-116
Experiment: Cytotoxicity against human HCT116 cells assessed as cell viability after 48 hrs by Hoechst 33342 staining based assay
Assay type: functional
Conditions: HCT-116, 48 h

Row | SMILES | IC50
24 | COc1cccc(/C=C/C(=O)c2c(O)cc(OC)cc2OC)c1 | 7.7 µM

Tested on: MDA-MB-231
Experiment: Cell cycle arrest in human MDA-MB-231 cells harboring p53 mutant assessed as accumulation at S phase at 10 uM measured after 48 hrs by Hoechst/BrdU staining based fluorescence assay (reference value: 42.2%)
Assay type: functional
Conditions: not given

Row | SMILES | Activity
25 | COc1cccc(/C=C/C(=O)c2c(O)cc(OC)cc2OC)c1 | 54%

Tested on: PC-3
Experiment: Cell cycle arrest in human PC3 cells harboring p53 mutant assessed as accumulation at S phase at 10 uM measured after 48 hrs by Hoechst/BrdU staining based fluorescence assay (reference value: 40.8%)
Assay type: functional
Conditions: not given

Row | SMILES | Activity
26 | COc1cccc(/C=C/C(=O)c2c(O)cc(OC)cc2OC)c1 | 39%

Tested on: HaCaT
Experiment: Cell cycle arrest in human HaCaT cells harboring […] p53 assessed as accumulation at S phase at 25 uM measured after 48 hrs by Hoechst/BrdU staining based fluorescence assay (reference value: 52.3%)
Assay type: functional
Conditions: not given

Row | SMILES | Activity
27 | COc1cccc(/C=C/C(=O)c2c(O)cc(OC)cc2OC)c1 | 8%

Tested on: MDA-MB-231
Experiment: Cell cycle arrest in human MDA-MB-231 cells harboring p53 mutant assessed as accumulation at S phase at 25 uM measured after 48 hrs by Hoechst/BrdU staining based fluorescence assay (reference value: 42.2%)
Assay type: functional
Conditions: not given

Row | SMILES | Activity
28 | COc1cccc(/C=C/C(=O)c2c(O)cc(OC)cc2OC)c1 | 38%

Tested on: not listed separately
Experiment: Selectivity index, ratio of IC50 for human fibroblasts to IC50 for human HuH7 cells
Conditions: not given

Row | SMILES | Ratio IC50
29 | COc1cccc(/C=C/C(=O)c2c(O)cc(OC)cc2OC)c1 | 1.8

Tested on: HCT-116
Experiment: Cell cycle arrest in human HCT116 cells harboring wild-type p53 assessed as mitotic index at 25 uM measured after 48 hrs by Hoechst staining based fluorescence assay (reference value: 2.3)
Assay type: functional
Conditions: not given

Row | SMILES | Activity_index
30 | COc1cccc(/C=C/C(=O)c2c(O)cc(OC)cc2OC)c1 | 0.3

Tested on: HaCaT
Experiment: Cell cycle arrest in human HaCaT cells harboring […] p53 assessed as accumulation at S phase at 10 uM measured after 48 hrs by Hoechst/BrdU staining based fluorescence assay (reference value: 52.3%)
Assay type: functional
Conditions: not given

Row | SMILES | Activity
31 | COc1cccc(/C=C/C(=O)c2c(O)cc(OC)cc2OC)c1 | 49%

Tested on: MCF7
Experiment: Induction of apoptosis in human MCF7 cells harboring wild-type p53 assessed as increase in early apoptosis at 2 times IC50 after 24 hrs by YoPro/propidium iodide/Hoechst staining based assay
Assay type: functional, cell-based
Conditions: not given

Row | SMILES | Activity
32 | COc1cccc(/C=C/C(=O)c2c(O)cc(OC)cc2OC)c1 | Active

Tested on: not listed separately
Experiment: Selectivity index, ratio of IC50 for human fibroblasts to IC50 for human RL cells
Conditions: not given

Row | SMILES | Ratio IC50
33 | COc1cccc(/C=C/C(=O)c2c(O)cc(OC)cc2OC)c1 | 3

Tested on: PC-3
Experiment: Cell cycle arrest in human PC3 cells harboring p53 mutant assessed as accumulation at S phase at 25 uM measured after 48 hrs by Hoechst/BrdU staining based fluorescence assay (reference value: 40.8%)
Assay type: functional
Conditions: not given

Row | SMILES | Activity
34 | COc1cccc(/C=C/C(=O)c2c(O)cc(OC)cc2OC)c1 | 9.4%

Tested on: MDA-MB-231
Experiment: Cell cycle arrest in human MDA-MB-231 cells assessed as accumulation at M phase by Hoechst staining based fluorescence assay
Assay type: functional
Conditions: not given

Row | SMILES | Activity
35 | COc1cccc(/C=C/C(=O)c2c(O)cc(OC)cc2OC)c1 | Active

Tested on: HCT-116
Experiment: Induction of apoptosis in human HCT116 cells harboring wild-type p53 assessed as upregulation of p21 measured after 48 hrs by Hoechst staining based fluorescence assay
Assay type: functional, cell-based
Conditions: not given

Row | SMILES | Activity
36 | COc1cccc(/C=C/C(=O)c2c(O)cc(OC)cc2OC)c1 | Active

Tested on: HaCaT
Experiment: Cytotoxicity against human HaCaT cells assessed as cell viability after 48 hrs by Hoechst 33342 staining based assay
Assay type: functional
Conditions: not given

Row | SMILES | IC50
37 | COc1cccc(/C=C/C(=O)c2c(O)cc(OC)cc2OC)c1 | 10.4 µM

Tested on: NCI-H727
Experiment: Cytotoxicity against human NCI-H727 cells assessed as cell survival at 50 uM after 48 hrs by Hoechst 33342 staining based assay relative to control
Assay type: functional
Conditions: NCI-H727, 48 h, read-out: Survival

Row | SMILES | viability at 50 µM
38 | COc1cccc(/C=C/C(=O)c2c(O)cc(OC)cc2OC)c1 | 1%
